Assay [1] concerns CCRF-CEM. The assay can be described thus: Compound tested in Vitro for inhibition of cytopathic activity of HIV-1 on T4 lymphocytes (CEM cells); Inactive. In kind it is functional, cell-based, Homo sapiens. (In general: Protection from cytopathic effect is a common read-out in antiviral testing.)
The subject of assay [2] is CCRF-CEM. Description: Compound tested in Vitro for inhibition of cytopathic activity of HIV-1 on T4 lymphocytes (CEM cells). Particulars: Homo sapiens; call rule not given here. In kind it is functional, cell-based.
For assay [3], the system named is CCRF-CEM. The assay can be described thus: Compound tested in vitro for inhibition of cytopathic activity of AZT-resistant HIV-1 on T4 lymphocytes (CEM cells). In kind it is functional, cell-based. Particulars: Homo sapiens.
Assay [4] concerns CCRF-CEM. Description: Compound tested in vitro for inhibition of cytopathic activity of AZT-resistant SIV on T4 lymphocytes (CEM cells): IA denotes inactive. The format is functional, cell-based, Homo sapiens.
Assay [5] concerns CCRF-CEM. The assay can be described thus: Compound tested in vitro for inhibition of cytopathic activity of AZT-sensitive HIV-1 on T4 lymphocytes (CEM cells). The following applies: Homo sapiens. The format is functional, cell-based.
For assay [6], the system named is CCRF-CEM. Description: Compound tested in vitro for inhibition of cytopathic activity of AZT-sensitive HIV-2 on T4 lymphocytes (CEM cells): IA denotes inactive. The format is functional, cell-based, Homo sapiens.
For assay [7], the system named is CCRF-CEM. The assay can be described thus: Compound tested in vitro for inhibition of cytopathic activity of AZT-sensitive SIV on T4 lymphocytes (CEM cells): IA denotes inactive. In kind it is functional, cell-based, Homo sapiens.
Assay [8] relates to CCRF-CEM. Description: Compound tested in vitro for inhibition of cytopathic activity of Merck-resistant variant of AZT-resistant HIV-l (A17) on T4 lymphocytes (CEM cells): IA denotes inactive. In kind it is functional, cell-based, Homo sapiens.
Assay [9] has as its system CCRF-CEM. The assay can be described thus: Compound tested in vitro for inhibition of cytopathic activity of Merck-resistant variant of AZT-sensitive HIV-l (A17) on T4 lymphocytes (CEM cells): IA denotes inactive. The format is functional, cell-based, Homo sapiens.
The test system of assay [10] is CCRF-CEM. The assay can be described thus: Compound tested in vitro for inhibition of cytopathic activity of HIV-1 on T4 lymphocytes (CEM cells). The format is functional, cell-based. The following applies: Homo sapiens.
The subject of assay [11] is CCRF-CEM. The assay can be described thus: Compound tested in vitro for inhibition of cytopathic activity of AZT-resistant HIV-2 on T4 lymphocytes (CEM cells): IA denotes inactive. In kind it is functional, cell-based, Homo sapiens.

As a reminder, the EC50 is the concentration that produces a half-maximal response. Lower therefore signals greater potency. By IC50 is commonly meant the concentration needed to halve the response being measured. In the case of `COc1cc2c(cc1O)C1COc3ccccc3C1O2` (stereo not given), in the assay with CCRF-CEM [1], the EC50 entry is listed as “Not Active” and the IC50 result was “Not Active”.

Take `COc1ccc2c(c1)OCC1c3cc(O)c(OCc4ccc5ccccc5c4)cc3OC21` (stereo not given): in the assay with CCRF-CEM [2], the response was half-maximal at 3.35 µM (EC50) and the midpoint of inhibition, the IC50, lay at 34.2 µM.

For `COc1ccc2c(c1)OCC1c3cc(O)c(OC)cc3OC21` (stereo not given), in the assay on CCRF-CEM [1], the EC50 result is “Not Active” and the half-inhibitory concentration (IC50) entry is “Not Active”.

In the assay on CCRF-CEM [2], `COc1ccc2c(c1)OCC1c3cc(O)c(OCC(C)C)cc3OC21` (stereo not given) showed an EC50 of 2.28 µM and an IC50 of 24.5 µM.

As to `COc1ccc2c(c1)OCC1c3cc(CC=C(C)C)c(OCc4ccccc4)cc3OC21` (stereo not given), in the assay on CCRF-CEM [1], the EC50 result is given as “Not Active” and the half-inhibitory concentration (IC50) entry was “Not Active”.

In the assay with CCRF-CEM [2], `COc1ccc2c(c1)OCC1c3cc(O)c(OCC4CCCCC4)cc3OC21` (stereo not given) came in with an EC50 of 1.46 µM and an IC50 of 22.2 µM.

Turning to `COc1ccc2c(c1)OCC1c3ccc(OCc4ccccc4)cc3OC21` (stereo not given), in the assay on CCRF-CEM [2], the concentration for a half-maximal effect (EC50) is 31.2 µM and half-maximal inhibition (IC50) was put at 200 µM.

Consider `COc1ccc2c(c1)OC1c3ccc(OC)cc3OCC21` (stereo not given), for which, in the assay on CCRF-CEM [1], the EC50 result is “Not Active” and the IC50 entry was “Not Active”.

As to `COc1ccc2c(c1)OCC1c3cc4c(cc3OC21)OCO4` (stereo not given), in the assay with CCRF-CEM [1], the EC50 entry is recorded as “Not Active” and the IC50 result is on record as “Not Active”.

As to `COc1cc2c(c(C)c1O)C1COc3ccccc3C1O2` (stereo not given), in the assay on CCRF-CEM [1], the EC50 entry was “Not Active” and the IC50 entry is recorded as “Not Active”.

Take `Oc1cc2c(cc1OCc1ccccc1)OC1c3ccccc3OCC21` (stereo not given): in the assay on CCRF-CEM [1], the EC50 result is listed as “Not Active” and the half-inhibitory concentration (IC50) result was “Not Active”.

In the assay with CCRF-CEM [2], `COc1ccc2c(c1)OCC1c3cc(OC)c(OCc4ccccc4)cc3OC21` (stereo not given) had an EC50 of 5.7 µM and an IC50 of 69.4 µM.

As to `COc1ccc2c(c1)OCC1c3cc(O)c(OCc4ccccc4)cc3OC21` (stereo not given), the EC50 is 1.3 µM in the assay on CCRF-CEM [3]; “Not Active” with CCRF-CEM [4]; 3.6 µM in the assay with CCRF-CEM [5]; “Not Active” in the assay on CCRF-CEM [6]; “Not Active” with CCRF-CEM [7]; “Not Active” with CCRF-CEM [8]. The concentration for a half-maximal effect (EC50) entry in the assay with CCRF-CEM [9] is “Not Active”; in the assay with CCRF-CEM [10], 1.21 µM; with CCRF-CEM [11], “Not Active”. The IC50 in the assay with CCRF-CEM [10] came out at 40.5 µM.

As for `COC(=O)c1c(O)ccc2c1C1COc3ccccc3C1O2` (stereo not given), in the assay with CCRF-CEM [1], the EC50 result is “Not Active” and the half-maximal inhibitory concentration (IC50) result is reported as “Not Active”.

Consider `COc1ccc2c(c1)OCC1c3cc(O)c(OCc4cccc5ccccc45)cc3OC21` (stereo not given), for which, in the assay on CCRF-CEM [2], the EC50 worked out at 0.43 µM and 38.5 µM corresponded to half-maximal inhibition (IC50).

As for `COC(=O)c1c(O)ccc2c1C1COc3cc(OC)ccc3C1O2` (stereo not given), in the assay with CCRF-CEM [1], the EC50 entry was “Not Active” and the IC50 entry is “Not Active”.
